From article PMC4258421 (Archives of biochemistry and biophysics, 2014)
Where two headings read alike, the source gives them in different places.

Tests used:
[1] = tested on: UGTs in human liver microsomes pooled from 150 donors (HLM150); assay type: in vitro ADME; conditions: for Km: read-out: Km for the microsomal reaction, glucuronidation at the C7 hydroxyl group, HLM150
recombinant UGT1A1 = conditions: read-out: Km for the UGT1A1 reaction, glucuronidation at the C7 hydroxyl group; cited from earlier work
plasma proteins = conditions: cited from earlier work
[2] = formation of 7-HOWAR-4-GLUC, DynaFit preferred model, 95 % CI in parentheses
[3] = formation of 7-HOWAR-7-GLUC, DynaFit preferred model, 95 % CI in parentheses

Compound	Vmax1 [1, 2]	Vmax2 [1, 2]	Ks [1, 3]	Vmax1 [1, 3]	Km [1]	Km (recombinant UGT1A1)	not bound to plasma proteins (plasma proteins)	Ks [1, 2]
CC(=O)C[C@H](c1ccccc1)c1c(O)c2ccc(O)cc2oc1=O [R-7-HOWAR, R-7-hydroxywarfarin]	58.0 (49.5–66.1) nmol/min/mg protein	19.0 (16.3–21.4) nmol/min/mg protein	121 (101–144) μM	1090 (1050–1140) nmol/min/mg protein	121 µM	130 µM	4.49%	
CC(=O)C[C@@H](c1ccccc1)c1c(O)c2ccc(O)cc2oc1=O [S-7-OHWAR, S-7-hydroxywarfarin]	19.7 (17.6–22.4) nmol/min/mg protein		927 (559–1960) μM	1470 (1020–2700) nmol/min/mg protein	927 µM	230 µM	4.27%	110 (83.0–149) μM
